# Measurements reported in patent publication US20100048462A1, “TRUNCATED PTH PEPTIDES WITH A CYCLIC CONFORMATION” (Zealand Pharma A/S, priority 2006, published 2010).
# Entries after “also recorded” stand apart in the source; their conditions may differ. Bridge positions count the residues as written; N and C are the ends. Square brackets hold non-standard residues; d marks the D form. Peptide text beside a SMILES is read from it. hArg = N=C(N)NCCCC[C@H](N)C(=O)O; Ac5c = NC1(C(=O)O)CCCC1; Aib = CC(C)(N)C(=O)O
# Columns and labels:
# [1] = tested on: ovariectomized rats; conditions: ovariectomized rats; cited from earlier work
# [2] = target: T1, Saos-2 PTH1R (Homo sapiens, UniProt Q03431); test: cAMP-efficacy assay in Saos-2 cells; format: cell-based; conditions: for EC50 / potency compared to linear / non-stabilized counterparts, in words: cAMP; for EC50: 100 μM IBMX, 37° C. 15 min, suffix of label = salt tested; for Emax ± SEM: relative effect to the control (SEQ ID NO: 32)
# T1 construct: endogenous in cells; host or cells: Saos-2
# T1 sequence (Q03431 27-593): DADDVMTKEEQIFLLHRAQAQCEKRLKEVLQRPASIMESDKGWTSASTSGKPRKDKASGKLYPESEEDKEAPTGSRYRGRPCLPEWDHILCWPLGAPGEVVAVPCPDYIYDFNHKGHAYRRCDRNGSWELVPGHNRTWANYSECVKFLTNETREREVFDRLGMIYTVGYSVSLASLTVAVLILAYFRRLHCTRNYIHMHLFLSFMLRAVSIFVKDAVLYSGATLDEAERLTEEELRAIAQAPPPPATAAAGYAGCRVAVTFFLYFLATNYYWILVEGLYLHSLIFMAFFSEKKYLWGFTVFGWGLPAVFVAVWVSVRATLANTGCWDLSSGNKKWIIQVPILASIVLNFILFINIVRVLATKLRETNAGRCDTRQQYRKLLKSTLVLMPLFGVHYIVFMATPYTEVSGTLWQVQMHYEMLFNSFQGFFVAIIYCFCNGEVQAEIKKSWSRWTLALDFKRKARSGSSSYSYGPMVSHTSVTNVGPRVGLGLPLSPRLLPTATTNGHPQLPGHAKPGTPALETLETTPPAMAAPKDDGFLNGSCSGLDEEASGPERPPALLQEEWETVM
# Outline: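 Saos-2 cells, grown two days after seeding at 50,000 cells/well, were exposed to peptide for 15 min at 37 °C in Tyrode's buffer with 0.1% BSA and 100 μM IBMX. After stopping with cold HCl, cAMP was measured by radioimmunoassay FlashPlate. EC50, pEC50, Hill slope and Emax came from a four-parameter sigmoidal fit.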
# [3] = target: T2, PTH receptor 1 (Mus musculus, UniProt P41593); test: MC3T3-E1 cAMP efficacy assay; format: cell-based, murine; conditions: MC3T3-E1 cells; for EC50: 100 μM IBMX, 37° C.; for Emax ± SEM [pmol/well]: maximally inducible cAMP
# T2 construct: host or cells: MC3T3-E1 subclone 4
# T2 sequence (P41593 27-591): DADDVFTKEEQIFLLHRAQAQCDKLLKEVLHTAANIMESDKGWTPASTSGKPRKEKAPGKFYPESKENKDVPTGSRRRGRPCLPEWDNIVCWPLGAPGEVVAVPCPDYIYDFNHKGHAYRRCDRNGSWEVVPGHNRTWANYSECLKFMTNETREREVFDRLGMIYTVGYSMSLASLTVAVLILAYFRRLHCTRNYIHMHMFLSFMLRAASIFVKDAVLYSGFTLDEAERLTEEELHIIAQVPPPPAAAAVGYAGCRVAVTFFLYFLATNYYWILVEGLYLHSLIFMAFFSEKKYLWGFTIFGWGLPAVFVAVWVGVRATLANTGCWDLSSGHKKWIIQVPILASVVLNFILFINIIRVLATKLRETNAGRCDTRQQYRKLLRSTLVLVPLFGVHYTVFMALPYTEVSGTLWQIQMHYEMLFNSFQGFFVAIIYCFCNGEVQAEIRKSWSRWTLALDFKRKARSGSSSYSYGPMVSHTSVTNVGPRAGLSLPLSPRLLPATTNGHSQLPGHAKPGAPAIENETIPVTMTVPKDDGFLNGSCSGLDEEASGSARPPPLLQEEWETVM
# Method: MC3T3-E1 cells were seeded at 10,000 cells/well in 96-microtiter plates and grown overnight before the efficacy assays. On the day of analysis the growth medium was carefully removed by suction. Cells were washed once with 200 μl TB/0.1% […]. The buffer was replaced with 100 μl reaction mixture (±test peptide, +100 μM IBMX) and incubated at 37° C. for 13 min. The reaction was stopped by addition of 25 μl of ice-cold 0.5 M HCl. Cells were in the following incubated on ice for 60 min. 75 μl acetate-buffer were added to each well in a 96-well cAMP FlashPlate. […] FlashPlates were incubated overnight at 4° C., emptied by suction and counted in a TopCounter.
# Determinations were performed in triplicates at all doses. Standards were included as single determinations, duplicates or triplicates in each experiment, preferentially on each plate.
# Efficacy was evaluated in the concentration range from […].
# Concentration-dependent cAMP responses were imported into GraphPad Prism vers. 4, transformed and plotted. Curves were fitted with a function for sigmoidal dose response curve non-linear fit Y=Bottom+(Top-Bottom)/(1+10̂((LogEC50-X))) where X is the logarithm of concentration and Y is the response. Y starts at Bottom and goes to Top with a sigmoid shape. pEC50 and the maximally inducible concentration of cAMP were evaluated. Overall statistical differences were analyzed using one-way ANOVA. Post-hoc comparisons were made by the use of Fisher's Least Significance Test. Results were considered significant, when p was lower than 0.05.
# [4] = target: CYP2D6 (Homo sapiens, UniProt P10635); test: CYP2D6 inhibition in pooled human liver microsomes; format: in vitro ADME; set-up: Pooled human liver microsomes (HLM, final concentration 0.05 mg protein/mL); tissue BD Biosciences 452161; host or cells: pooled human liver microsomes; conditions: 10 μM compound, dextrorphan formation rate
# CYP2D6, sequence (P10635 whole entry): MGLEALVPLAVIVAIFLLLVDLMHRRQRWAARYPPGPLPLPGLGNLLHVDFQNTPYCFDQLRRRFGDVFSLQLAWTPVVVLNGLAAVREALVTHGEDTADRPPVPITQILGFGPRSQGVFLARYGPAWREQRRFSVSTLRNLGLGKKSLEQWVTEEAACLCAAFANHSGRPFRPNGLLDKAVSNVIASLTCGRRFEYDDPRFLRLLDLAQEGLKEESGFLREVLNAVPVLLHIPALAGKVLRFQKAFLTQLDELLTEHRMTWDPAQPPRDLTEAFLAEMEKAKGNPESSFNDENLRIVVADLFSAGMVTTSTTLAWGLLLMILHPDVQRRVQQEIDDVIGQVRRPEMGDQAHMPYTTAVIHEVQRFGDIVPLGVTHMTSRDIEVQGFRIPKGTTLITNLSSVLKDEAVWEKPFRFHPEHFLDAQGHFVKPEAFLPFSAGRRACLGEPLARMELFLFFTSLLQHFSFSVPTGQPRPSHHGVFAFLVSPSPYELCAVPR
# Outline: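 Pooled HLM (0.05 mg/mL) in 0.1 M KPi pH 7.4 with 5 μM dextromethorphan and 10 μM test compound, preincubated 5 min at 37 °C, then started with NADPH-regenerating system for 5 min. Dextrorphan quantified by LC/MS/MS; activity expressed as % of vehicle; <70% considered significant.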
Molecule,EC50 [2] [nM],Emax ± SEM [2],EC50 ([3]; cAMP) [nM],Emax ± SEM [pmol/well] [3] [pmol/well],CYP2D6 activity (% of vehicle) [4],other results
"[Ala^1.3, Nle^8, Gln^10, Har^11, Trp^14, Arg^19, Tyr^21]rPTH(1-21) [MPTH(1-21)]",,,,,,bone-anabolic activity [1]: inactive
"CC[C@H](C)[C@H](NC(=O)[C@H](CCC(=O)O)NC(=O)C(C)(C)NC(=O)[C@@H](NC(=O)C1(N)CCCC1)C(C)C)C(=O)N[C@@H](CCC(N)=O)C(=O)N[C@@H](CC(C)C)C(=O)N[C@@H](CCSC)C(=O)N[C@@H](Cc1c[nH]cn1)C(=O)N[C@@H](CCC(N)=O)C(=O)N[C@@H](CCCCNC(=N)N)C(=O)N[C@@H](C)C(=O)N[C@H]1CCCCNC(=O)C[C@@H](C(N)=O)NC(=O)[C@H](CC(C)C)NC(=O)[C@H](Cc2c[nH]c3ccccc23)NC1=O [SEQ ID NO: 30, H-Ac5c-Val-Aib-Glu-Ile-Gln-Leu-Met-His-Gln-Har-Ala-Lys( )-Trp-Leu-Asp( )-NH2] (H-[Ac5c]V[Aib]EIQLMHQ[hArg]AKWLD-NH2; lactam 13-16)",81.3,1.04 ± 0.05,10,5.0 ± 0.2,83 % of vehicle,
"CC[C@H](C)[C@H](NC(=O)[C@H](CCC(=O)O)NC(=O)C(C)(C)NC(=O)[C@@H](NC(=O)C1(N)CCCC1)C(C)C)C(=O)N[C@@H](CCC(N)=O)C(=O)N[C@@H](CC(C)C)C(=O)N[C@@H](CCSC)C(=O)N[C@@H](Cc1c[nH]cn1)C(=O)N[C@@H](CCC(N)=O)C(=O)N[C@@H](CCCCNC(=N)N)C(=O)N[C@@H](C)C(=O)N[C@H]1CCCCNC(=O)C[C@@H](C(N)=O)NC(=O)[C@H](CC(N)=O)NC(=O)[C@H](CC(C)C)NC(=O)[C@H](Cc2c[nH]c3ccccc23)NC1=O [SEQ ID NO: 2, H-Ac5c-Val-Aib-Glu-Ile-Gln-Leu-Met-His-Gln-Har-Ala-Lys( )Trp-Leu-Asn-Asp( )-NH2] (H-[Ac5c]V[Aib]EIQLMHQ[hArg]AKWLND-NH2; lactam 13-17)",,,1,4.9 ± 0.8,67 % of vehicle,"potency compared to linear / non-stabilized counterparts, in words [2]: significantly higher potency; potency compared to linear / non-stabilized counterparts, in words ([2]; listed as 2): increased potencies; potency compared to linear / non-stabilized counterparts, in words ([2]; listed as SEQ ID NO:2): significantly higher potency; potency comparison in words ([3]; cAMP): EC50 comparable to PTH(1-34); also recorded: significantly more potent than SEQ ID NO: 31, SEQ ID NO: 3 and SEQ ID NO: 42"
"CC[C@H](C)[C@H](NC(=O)[C@H](CCC(=O)O)NC(=O)C(C)(C)NC(=O)[C@@H](NC(=O)C1(N)CCCC1)C(C)C)C(=O)N[C@@H](CCC(N)=O)C(=O)N[C@@H](CC(C)C)C(=O)N[C@@H](CCSC)C(=O)N[C@@H](Cc1c[nH]cn1)C(=O)N[C@@H](CCC(N)=O)C(=O)N[C@@H](CCCCNC(=N)N)C(=O)N[C@@H](C)C(=O)N[C@@H](CCCCN)C(=O)N[C@@H](Cc1c[nH]c2ccccc12)C(N)=O [SEQ ID NO: 31, H-Ac5c-Val-Aib-Glu-Ile-Gln-Leu-Met-His-Gln-Har-Ala-Lys-Trp-NH2, reference compound] (H-[Ac5c]V[Aib]EIQLMHQ[hArg]AKW-NH2)",21.9,1.07 ± 0.04,3.98,4.5 ± 1.0,22 % of vehicle,
"CC[C@H](C)[C@H](NC(=O)[C@H](CCC(=O)O)NC(=O)[C@H](CO)NC(=O)[C@@H](NC(=O)[C@@H](N)CO)C(C)C)C(=O)N[C@@H](CCC(N)=O)C(=O)N[C@@H](CC(C)C)C(=O)N[C@@H](CCSC)C(=O)N[C@@H](Cc1c[nH]cn1)C(=O)N[C@@H](CC(N)=O)C(=O)N[C@@H](CC(C)C)C(=O)NCC(=O)N[C@@H](CCCCN)C(=O)N[C@@H](Cc1c[nH]cn1)C(=O)N[C@@H](CC(C)C)C(=O)N[C@@H](CC(N)=O)C(=O)N[C@@H](CO)C(=O)N[C@@H](CCSC)C(=O)N[C@@H](CCC(=O)O)C(=O)N[C@@H](CCCNC(=N)N)C(=O)N[C@H](C(=O)N[C@@H](CCC(=O)O)C(=O)N[C@@H](Cc1c[nH]c2ccccc12)C(=O)N[C@@H](CC(C)C)C(=O)N[C@@H](CCCNC(=N)N)C(=O)N[C@@H](CCCCN)C(=O)N[C@@H](CCCCN)C(=O)N[C@@H](CC(C)C)C(=O)N[C@@H](CCC(N)=O)C(=O)N[C@@H](CC(=O)O)C(=O)N[C@H](C(=O)N[C@@H](Cc1c[nH]cn1)C(=O)N[C@@H](CC(N)=O)C(=O)N[C@@H](Cc1ccccc1)C(=O)O)C(C)C)C(C)C [SEQ ID NO: 32, reference compound]",,,,4.4 ± 0.4,,agonism on PTH receptor cAMP signalling [3]: robust cAMP response
"CC[C@H](C)[C@H](NC(=O)[C@H](CCC(=O)O)NC(=O)C(C)(C)NC(=O)[C@@H](NC(=O)C1(N)CCCC1)C(C)C)C(=O)N[C@@H](CCC(N)=O)C(=O)N[C@@H](CC(C)C)C(=O)N[C@@H](CCSC)C(=O)N[C@@H](Cc1c[nH]cn1)C(=O)N[C@@H](CCC(N)=O)C(=O)N[C@@H](CCCCNC(=N)N)C(=O)N[C@@H](C)C(=O)N[C@@H](CCCCN)C(=O)N[C@@H](Cc1c[nH]c2ccccc12)C(=O)N[C@@H](CC(C)C)C(=O)N[C@@H](CC(N)=O)C(=O)N[C@@H](CC(N)=O)C(N)=O [SEQ ID NO: 3, H-Ac5c-Val-Aib-Glu-Ile-Gln-Leu-Met-His-Gln-Har-Ala-Lys-Trp-Leu-Asn-Asn-NH2] (H-[Ac5c]V[Aib]EIQLMHQ[hArg]AKWLNN-NH2)",9.12,1.06 ± 0.06,2.51,5.5 ± 0.9,21 % of vehicle,
"CC[C@H](C)[C@H](NC(=O)[C@H](CCC(=O)O)NC(=O)C(C)(C)NC(=O)[C@@H](NC(=O)C1(N)CCCC1)C(C)C)C(=O)N[C@@H](CCC(N)=O)C(=O)N[C@@H](CC(C)C)C(=O)N[C@@H](CCSC)C(=O)N[C@@H](Cc1c[nH]cn1)C(=O)N[C@@H](CCC(N)=O)C(=O)N[C@@H](CCCCNC(=N)N)C(=O)N[C@@H](C)C(=O)N[C@@H](CCCCN)C(=O)N[C@@H](Cc1c[nH]c2ccccc12)C(=O)N[C@@H](CC(C)C)C(=O)N[C@@H](CC(N)=O)C(=O)N[C@@H](CC(=O)O)C(N)=O [SEQ ID NO: 42, H-Ac5c-Val-Aib-Glu-Ile-Gln-Leu-Met-His-Gln-Har-Ala-Lys-Trp-Leu-Asn-Asp-NH2] (H-[Ac5c]V[Aib]EIQLMHQ[hArg]AKWLND-NH2)",20.9,1.03 ± 0.07,6.31,5.7 ± 1.0,,CYP2D6 activity (% of vehicle) ([4]; listed as 42): 29 % of vehicle; CYP2D6 activity (% of vehicle) ([4]; listed as SEQ ID NO:42): 29 % of vehicle
